Tests used:
[1] = tested on: Mycobacterium tuberculosis CDC1551 (intracellular, in murine BMDM); assay: area under intracellular growth-inhibition dose-response curve (AUC (% inhibition x dose, relative)); higher = more potent; conditions: duration: 6 days; dose range: 0.13-80 uM, 8 points
Summary of the method: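 The value is the area under the growth-inhibition dose–response curve, calculated in GraphPad Prism. Primary murine bone marrow-derived macrophages were seeded in 384-well opaque plates and, 24 h later, infected for 1 h with luciferase-expressing M. tuberculosis CDC1551 at multiplicity of infection 1. Cells were then exposed for 6 days to an 8-dose, 2.5-fold series (final 80–0.13 μM). Growth was read with the Bright-Glo luciferin assay and normalised to a reference drug control and to the lowest-concentration wells.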

[2] = tested on: murine bone marrow-derived macrophages; assay: area under cytotoxicity dose-response curve (AUC (% cytotoxicity x dose, relative)); higher = more cytotoxic; conditions: duration: 6 days; dose range: 0.13-80 uM, 8 points
Summary of the method: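 Values are the area under the cytotoxicity dose–response curve, calculated with GraphPad Prism version 10. Primary murine bone marrow-derived macrophages were exposed to final concentrations of 80–0.13 μM for 6 days, and viability was read by CellTiter-Glo luminescence with normalisation to vehicle and positive control wells.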

SMILES | area under intracellular growth-inhibition dose-response curve [1] | area under cytotoxicity dose-response curve [2]
O=C(NC1CCCCCCC1)c1ccc(F)cc1 | 180 | 16.9
COc1ccc(OC)c2sc(N3CCN(C(=O)c4ccc([N+](=O)[O-])s4)CC3)nc12 | 10.8 | 14.2
COc1ccc(NC(=S)Nc2ccc(N)c([N+](=O)[O-])c2)cc1 | 167 | 5.13
Cc1ccc(S(=O)(=O)c2ccc([N+](=O)[O-])cn2)cc1 | < 0 | 102
Cc1ccc(-[n+]2c(-c3ccc(Br)cc3)cn3c2CCc2ccc4cccnc4c2-3)cc1.[Br-] | 96.2 | 29
Br.COc1ccc(C2=CSC(/N=C/c3ccc(F)cc3)=NN2)cc1 | 182 | 49.1
O=C(NC(=S)Nc1ccc(NC(=O)c2cccs2)cc1)c1ccco1 | 268 | < 0
C=C[C@]1(C)C[C@@H](OC(=O)CSCCN(CC)CC)[C@]2(C)C(C)CC[C@]3(CCC(=O)[C@H]32)[C@@H](C)[C@@H]1O (stereo not given in full) | 231 | < 0
O=C(/C=C/c1ccco1)c1ccc(NC(=O)C23CC4CC(CC(C4)C2)C3)cc1 | 260 | < 0
Cc1ccc(Cc2c(C)c(C#N)c3nc4ccccc4n3c2O)cc1 | 240 | 75.7
NC(=S)N/N=C/c1cccc(Br)c1 | 270 | 35
O=C(NCc1ccc(Cl)cc1)c1ccc(Br)o1 | 204 | 52.2
Cn1c(=O)n(C)c2cc(/C=N/NC(N)=S)ccc21 | 262 | < 0
Cc1cc(OCCCC(=O)NNC(=O)c2ccncc2)ccc1Cl | 245 | 25.3
Cc1ccc(C)c2sc(N3CCN(C(=O)c4ccc([N+](=O)[O-])o4)CC3)nc12 | 3.34 | 33.4
O=C(NCc1cccs1)c1ccc(Br)o1 | 191 | < 0
COc1cccc2c1nc(C)c1cc(C)oc12 | 121 | < 0
COc1ccc(-c2c(C)cc3oc(=O)cc(-c4ccccc4)c3c2C)cc1 | 154 | 33.9
Cc1nnc(SCC(=O)NNC(=O)COc2ccc(Br)cc2)n1C | 68.9 | 1.25
CC(C)c1ccc(NC(=S)NC2CCCCCC2)cc1 | 141 | < 0

SMILES | area under intracellular growth-inhibition dose-response curve [1] | area under cytotoxicity dose-response curve [2]
COc1ccc(C/C(C)=N/NC(=O)c2ccncc2)cc1 | 261 | 40.9
COc1ccc(Cn2c(SCc3ccccc3C)nc3cc(OC)c(OC)cc3c2=N)cc1 | 172 | 2.96
C/C(CC(C)(C)C1CCCCC1)=N\NC(N)=S | 238 | 119
Cc1ccc(Cn2cc(-c3ccccc3)nn2)cc1 | 191 | 11.2
Cc1ccc(S(=O)(=O)[O-])cc1.c1cnc2c(c1)ccc1ccc[nH+]c12 | 94 | 114
CC(/C=C/c1ccccc1)=N\NC(N)=S | 266 | 31.1
CCCOc1ccc(C(=O)CCC(=O)NNC(=O)c2ccncc2)cc1 | 269 | < 0
N#CCCn1cc(/C=N/NC(=O)c2ccncc2)c(-c2ccccc2)n1 | 247 | < 0
CCOc1ccc(C(=O)NC(=S)Nc2ccc(N3CCC(C)CC3)cc2)cc1[N+](=O)[O-] | 254 | 81.7
CC(=O)n1cc(/C=N/NC(N)=S)c2ccccc21 | 273 | < 0
CCOC(=O)c1ccccc1OCc1cc(/C=N/NC(=O)c2ccncc2)ccc1OC | 269 | 20.2
COc1cc(/C=N\NC(=O)c2sc(N)nc2C)cc(OC)c1OC | 35.1 | 140
CC[C@@H](C)[C@@H]1CN([C@@H](CN2CCC[C@H]2CN2C(N)=NC[C@@H]2Cc2ccccc2)C(C)C)C(=N)N1CCCC1CCCC1 | 83.6 | 98.8
O=C(NCc1ccco1)c1cc2c(s1)CCCCC2 | 255 | 42.6
CC(C)(O)C(=O)Nc1ccc([N+](=O)[O-])c(C(F)(F)F)c1 | 35.7 | 82.8
O=C(N/N=C/c1cccc2ccccc12)c1ccncc1 | 262 | 67.8
O=C(N/N=C/c1ccc([N+](=O)[O-])o1)c1cc2ccccc2o1 | 106 | 43.2
COc1ccc(/C=C(\NC(=O)c2ccc(C)cc2)C(=O)Nc2c(C)n(C)n(-c3ccccc3)c2=O)cc1 | 50.7 | 42
COc1cc(/C=N/NC(=O)c2ccncc2)ccc1OC(=O)c1cccc(F)c1 | 111 | 88.7
O=[N+]([O-])c1ccc(CN2CCN(c3ccccc3Cl)CC2)o1 | 123 | 63.5

SMILES | area under intracellular growth-inhibition dose-response curve [1] | area under cytotoxicity dose-response curve [2]
CCN(CC)CCOC(=O)c1ccc(N/C=C(/C#N)c2nc(-c3ccc(OC)c(OC)c3)cs2)cc1 | 90.7 | 36.6
O=C(CCN1C(=O)S/C(=C\c2ccc(F)cc2)C1=O)Nc1ccc(C(=O)O)c(O)c1 | 120 | 11.3
CCOc1ccc(OCCC(=O)NNC(=O)c2ccncc2)cc1 | 272 | 1.82
COc1cc(/C=N/NC(N)=S)ccc1OCc1ccc(C)cc1 | 255 | 30.4
Cc1ccccc1C(=O)N1CCN(c2ccc(NC(=S)NC(=O)c3ccco3)cc2)CC1 | 185 | 63.6
COC(=O)c1cccc(/C=N/NC(N)=S)c1O | 144 | 32.1
Cc1ccc(C(=O)N2CCCC2)cc1Br | 166 | 8.65
COc1ccc(-c2ncn(CCC#N)c2[N+](=O)[O-])cc1 | 119 | 8.24
CNC[C@@H](CC1CCCCC1)NC[C@H](CC(C)C)NCCc1cccc(C(F)(F)F)c1 | 197 | 94
CC(=O)O[C@H]1C[C@@]2(C)[C@@H](C[C@@H](O)[C@H]3[C@@]4(C)CC[C@@H](O)[C@@H](C)[C@@H]4CC[C@@]32C)/C1=C(\CCC=C(C)C)C(=O)O | 206 | < 0
CC[C@H]1OC(=O)[C@H](C)[C@@H](O[C@H]2C[C@@](C)(OC)[C@@H](O)[C@H](C)O2)[C@H](C)[C@@H](O[C@@H]2O[C@H](C)C[C@H](N(C)C)[C@H]2O)[C@](C)(OC)C[C@@H](C)C(=O)[C@H](C)[C@@H](O)[C@]1(C)O | 246 | 48.5
CCn1c(C)cs/c1=N/C(=O)c1ccccc1 | 197 | 25.7
O=C(Sc1cccc2cccnc12)c1ccc(F)cc1 | 110 | 125
COc1sc(SC)cc1/C=N/NC(=O)c1ccncc1 | 176 | 26.8
O=C(O)C(=O)O.O=[N+]([O-])c1ccc(N2CCN(Cc3ccc([N+](=O)[O-])o3)CC2)cc1 | 245 | 45.2
CCOC(=O)c1ccc(NC(=O)c2cc3c(s2)CCC3)cc1 | 234 | 11.2
CNc1ncnc2c1ncn2[C@@H]1O[C@H](CO)[C@@H](O)[C@H]1O | 39.4 | 32.7
C/C(CC(=O)Nc1ccc(Cl)cc1Cl)=N\NC(=O)c1ccncc1 | 270 | 46.2
Cc1cnc(C(=O)OCC(=O)Nc2cccc3ccccc23)cn1 | 15.8 | < 0
O=[N+]([O-])c1ccc(/C=N/Nc2nc(N3CCCCC3)nc(N3CCCCC3)n2)o1 | 226 | < 0

— the supplement of paper PMC11997997
